Legend:
CYP2C9 = molecular target: T1, CYP2C9 (Homo sapiens, UniProt P11712); test: CYP enzyme single point inhibition, human liver microsomes, 2C9; assay type: in vitro ADME; conditions: single point method
T1 construct: from tissue; host or cells: human liver microsomes
Method: (§1) Using human liver microsomal incubation system, the inhibition of CYP450 enzyme subtypes by compounds was rapidly predicted by single point method.
(§2) 2.5 mM NADPH: 100 mM phosphate buffer was added to 4.165 mg of NADPH (reduced nicotinamide adenine dinucleotide phosphate) to 2 mL. 0.25 mg/mL microsome: 4 mL of 100 mM phosphate buffer was added to 50 μL of 20 mg/mL microsome and mixed well.
(§3) The embodiment compound to be tested was weighed and diluted to 10 mM with DMSO and then diluted to 100 μM with 100 mM phosphate buffer.
(§4) • 1. In a 96-well plate, 40 μL of liver microsomes, 10 μL of substrate, 10 μL of compound to be tested were pre-incubated for 3 min. • 2. 40 μL of NADPH was added. • 3. 300 μL of acetonitrile termination solution containing internal standard was added at 20 min. • 4. Centrifugal injection.

CYP2C19 = molecular target: T2, CYP2C19 (Homo sapiens, UniProt P33261); test: CYP enzyme single point inhibition, human liver microsomes, 2C19; assay type: in vitro ADME; conditions: single point method
T2 construct: from tissue; host or cells: human liver microsomes
T2 sequence (P33261 whole entry): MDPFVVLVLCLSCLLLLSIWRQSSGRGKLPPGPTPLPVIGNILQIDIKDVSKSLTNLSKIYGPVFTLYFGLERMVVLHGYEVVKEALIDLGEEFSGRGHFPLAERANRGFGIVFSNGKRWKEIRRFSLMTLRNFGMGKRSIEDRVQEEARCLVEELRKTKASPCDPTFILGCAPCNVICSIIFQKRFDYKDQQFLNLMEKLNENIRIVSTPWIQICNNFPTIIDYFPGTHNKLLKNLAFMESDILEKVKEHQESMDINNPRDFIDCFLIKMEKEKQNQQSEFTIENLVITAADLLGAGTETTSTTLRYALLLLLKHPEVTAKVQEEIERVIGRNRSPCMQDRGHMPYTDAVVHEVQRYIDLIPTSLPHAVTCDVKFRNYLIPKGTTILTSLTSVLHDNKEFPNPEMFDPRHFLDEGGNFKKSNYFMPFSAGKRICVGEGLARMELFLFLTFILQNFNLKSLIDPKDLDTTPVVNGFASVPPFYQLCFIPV
Method: as §1, §2, §3, §4

[1] = system: human pancreatic cancer cell MiaPaca 2 xenograft; test: Tumor inhibition on MiaPaca 2 transplanted tumor (CDX) model; assay type: in vivo, BALB/c nude mice; conditions: for TGI (%) Day 21 / tumor volume (mm^3, Mean ± SD) Day 21 / ΔT/ΔC(%) Day 21: Day 21, 6 mg/kg QD×3 w oral; for tumor volume (mm^3, Mean ± SD) Day 0: baseline Day 0, 6 mg/kg QD×3 w oral
Method: MiaPaca 2 cells were removed from the cell bank, revived and added to DMEM medium (containing 10% FBS, 1% Glu, 1% P/S) and incubated in a CO2 incubator (incubator temperature was 37° C., CO2 concentration was 5%). After the cells were spread to 80-90% of the bottom of the culture flask, the cells were continued to be cultured in the CO2 incubator. The process was repeated until the number of cells met the in vivo pharmacological inoculation requirement, and the cells in logarithmic growth period were collected and counted with an automatic cell counter, resuspended with PBS and Matrigel (volume ratio 1:1) according to the count results, made into a cell suspension (the density was 8×10^7/mL), and placed in an ice box for use.
BALB/c nude mice, female, 6-8 weeks old, weighing about 18-22 g. The mice were kept in an environment free of special pathogens and in a single ventilated cage with 5 mice in each cage. All cages, bedding and water were sterilized before use, and all animals had free access to standard certified commercial laboratory diets. Nude mice were labeled with disposable universal ear tags for mice and rats before the start of the experiment, and the skin of the inoculation site was disinfected with 75% medical alcohol before inoculation, 0.1 mL (containing 8*10^6 cells) of MiaPaca 2 tumor cells were inoculated subcutaneously on the right back of each mouse. When the tumor volume reached 100-200 mm^3, the group administration was started. The tested compounds were administered daily by oral intragastric administration, dosage/frequency (6 mg/kg QD×3 w), and the efficacy of each group at the end of the experiment was shown in Table 29.
The tumor volume (mm^3) was measured with vernier caliper twice a week, the calculation formula was V=[…], wherein D and d were the long and short diameter of the tumor, respectively. The anti-tumor efficacy was determined by dividing the average tumor increased volume of the compound-treated animals by the average tumor increased volume of the untreated animals. The formula of tumor inhibition rate is: TGI (%)=1−[(Vt−V0) administration group/(Vt−V0) solvent control group]*100%. After the experiment, all animals were euthanized.

in vivo = conditions: male, Balb/c, mouse, po, 10 mg/kg
Method: 5 g of Hydroxyethyl cellulose (HEC, CMC-Na, viscosity: 800-1200 Cps) was weighed, dissolved in 1000 mL of purified water, and 10 g of Tween 80 was added. The mixture was mixed well to form a clear solution.
The embodiment compounds were weighed and added into 4-mL glass bottles, respectively, 2.4 mL of the solution was added, and ultrasound was performed for 10 minutes to obtain a colorless clear solution with a concentration of 1 mg/mL.
Balb/C mice, males; PO, after overnight fasting, respectively, at a dose of 10 mg/kg, administered in a volume of 10 mL/kg.
Blood samples were collected before administration and 0.083 h, 0.25 h, 0.5 h, 1 h, 2 h, 4 h, 6 h and 8 h after administration, the blood was placed in EDTA-2K tube, centrifuged at 4° C. 6000 rpm for 6 min to separate plasma, and stored at −80° C.; food was consumed 4 hours after drug administration.

[2] = Plasma stability, dog plasma; assay type: in vitro ADME; conditions: for Residual rate (%) 0 min / Residual rate (%) 15 min / Residual rate (%) 30 min / Residual rate (%) 60 min / Residual rate (%) 120 min: dog plasma, 37° C.; for half-life at 0.5 μM: dog, plasma
Method: (§5) Animal or human whole blood was collected, then the blood was put into a test tube containing anticoagulant, centrifuged at 3500 rpm for 10 min, and the upper layer of pale yellow plasma was collected. • 2), 10 μM of tested compound (m/M/V=C)
(§6) The compound was weighed, the stock solution was prepared with DMSO and the working solution was prepared with 100 mM phosphate buffer. • 3), 10 μM of positive control (1) Propantheline (Propantheline Mr=449.4 Da)
(§7) • 1) 285 μL of plasma and 15 μL of 10 μM compound (tested compound) were added in turn in a 96-well plate, and incubated at 37° C. • 2) 40 μL was taken out at 0, 15, 30, 60, 90, 120 min, respectively, and 160 μL of acetonitrile termination solution containing internal standard was added. • 3) After centrifugation (3500 rpm, 10 min), 50 μL of supernatant was taken out, and then diluted with 50 μL DDH2O and injected to LC-MS/MS.
(§8) • Instrument: Shimadzu LC-20 AD • Chromatographic column: phenomenex Gemiu® C18 (50*4.6 mm, 5 μM particle size); • mobile phase: A: acetonitrile, B: 0.1% formic acid solution […], 2.0-2.1 min: 90% A→5% A; flow rate: 0.8 mL/min; running time: 5.0 min; injection volume: 5 μL.
(§9) • Instrument: API4000 Liquid Chromatography-Mass Spectrometry, AB, USA; • the ion source was electrospray ionization source (ESI); • the temperature of dry gas (N2) was 500° C.; • electrospray voltage was 5500V; • the detection method was positive ion detection; • the scanning mode was selective response monitoring (MRM). • the scanning time was 0.1 s.

in vitro = in vitro ADME; conditions: for half-life at 0.5 μM: plasma
Method: as §5, §6, §7, §8, §9

[3] = Plasma stability, rat plasma; assay type: in vitro ADME; conditions: for Residual rate (%) 0 min / Residual rate (%) 15 min / Residual rate (%) 30 min / Residual rate (%) 60 min / Residual rate (%) 120 min: rat plasma, 37° C.; for half-life at 0.5 μM: rat, plasma
Method: as §5, §6, §7, §8, §9

T1 sequence (P11712 whole entry): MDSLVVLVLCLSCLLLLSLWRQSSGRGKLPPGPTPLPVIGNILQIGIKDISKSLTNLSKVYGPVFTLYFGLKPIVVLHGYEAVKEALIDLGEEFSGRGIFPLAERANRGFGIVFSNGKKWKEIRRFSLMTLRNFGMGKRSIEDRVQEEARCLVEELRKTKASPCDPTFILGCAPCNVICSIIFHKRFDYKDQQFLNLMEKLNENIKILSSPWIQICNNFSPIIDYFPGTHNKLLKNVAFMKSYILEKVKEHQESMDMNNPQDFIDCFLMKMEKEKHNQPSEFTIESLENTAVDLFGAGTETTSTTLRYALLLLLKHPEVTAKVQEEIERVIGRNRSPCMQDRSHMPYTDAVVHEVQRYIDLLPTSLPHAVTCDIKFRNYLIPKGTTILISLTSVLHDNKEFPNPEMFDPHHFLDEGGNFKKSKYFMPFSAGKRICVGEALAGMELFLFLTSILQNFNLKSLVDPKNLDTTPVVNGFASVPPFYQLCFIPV

Row | Compound | IC50 (CYP2C9) [nM] | IC50 (CYP2C19) [nM] | TGI (%) Day 21 [1] [%] | tumor volume (mm^3, Mean ± SD) Day 21 [1] [mm^3] | ΔT/ΔC(%) Day 21 [1] [%] | tumor volume (mm^3, Mean ± SD) Day 0 [1] [mm^3] | AUC(0-inf) (in vivo) [ng·h/mL] | Cmax (in vivo) [ng/mL] | MRT (in vivo) [h] | Tmax (in vivo) [h] | half-life (in vivo) [h] | Residual rate (%) 0 min [2] [%] | Residual rate (%) 15 min [2] [%] | Residual rate (%) 30 min [2] [%] | Residual rate (%) 60 min [2] [%] | Residual rate (%) 120 min [2] [%] | half-life at 0.5 μM [2] [h] | Residual rate (%) 0 min (in vitro; human, 0.5 μM) [%] | Residual rate (%) 15 min (in vitro; human, 0.5 μM) [%] | Residual rate (%) 30 min (in vitro; human, 0.5 μM) [%] | other results
1 | C=CC(=O)N1C[C@H](C)N(c2nc(=O)n(-c3c(SC)ccnc3C(C)C)c3nc(-c4c(O)cccc4F)c(F)cc23)C[C@H]1C (single isomer, unassigned) [Embodiment 114-1] | 84.6 | > 100 | 162.36 | 67 ± 34 | −62.36 | 177 ± 38 | 1370 | 1820 | 0.7 | 0.25 | 0.6 | – | – | – | – | – | – | – | – | – | –
2 | C=CC(=O)N1C[C@H](C)N(c2nc(=O)n(-c3c(SC)ccnc3C(C)C)c3nc(-c4c(N)ccc(Cl)c4F)c(Cl)cc23)C[C@H]1C (single isomer, unassigned) [Embodiment 165-1] | 58.8 | 28.8 | 176.76 | 41 ± 19 | −76.76 | 178 ± 34 | 347 | 264 | 1.5 | 0.25 | 1 | 100.00 | 97.71 | 96.32 | 94.86 | 92.49 | 19.6 | 100.00 | 102.34 | 100.28 | Residual rate (%) 60 min (in vitro; human, 0.5 μM): 90.27%; Residual rate (%) 120 min (in vitro; human, 0.5 μM): 87.22%; half-life at 0.5 μM (in vitro; human): 8.35 h; Residual rate (%) 0 min (in vitro; mouse, 0.5 μM): 100.00%; Residual rate (%) 15 min (in vitro; mouse, 0.5 μM): 100.58%; Residual rate (%) 30 min (in vitro; mouse, 0.5 μM): 99.52%; Residual rate (%) 60 min (in vitro; mouse, 0.5 μM): 99.64%; Residual rate (%) 120 min (in vitro; mouse, 0.5 μM): 92.32%; half-life at 0.5 μM (in vitro; mouse): 16.9 h; Residual rate (%) 0 min [3]: 100.00%; Residual rate (%) 15 min [3]: 95.57%; Residual rate (%) 30 min [3]: 96.73%; Residual rate (%) 60 min [3]: 93.97%; Residual rate (%) 120 min [3]: 91.93%; half-life at 0.5 μM [3]: 19.3 h
3 | C=CC(=O)N1C[C@H](C)N(c2nc(=O)n(-c3c(SC)ccnc3C(C)C)c3nc(-c4c(O)cccc4F)c(Cl)cc23)C[C@H]1C (single isomer, unassigned) [Embodiment 166-1] | – | – | – | – | – | – | – | – | – | – | – | 100.00 | 99.98 | 98.79 | 93.69 | 86.16 | 8.88 | 100.00 | 99.15 | 94.74 | Residual rate (%) 60 min (in vitro; human, 0.5 μM): 89.14%; Residual rate (%) 120 min (in vitro; human, 0.5 μM): 78.85%; half-life at 0.5 μM (in vitro; human): 5.64 h; Residual rate (%) 0 min (in vitro; mouse plasma, 37° C.): 100.00%; Residual rate (%) 15 min (in vitro; mouse plasma, 37° C.): 105.42%; Residual rate (%) 30 min (in vitro; mouse plasma, 37° C.): 100.02%; Residual rate (%) 60 min (in vitro; mouse plasma, 37° C.): 99.12%; Residual rate (%) 120 min (in vitro; mouse plasma, 37° C.): 85.55%; half-life at 0.5 μM (in vitro; mouse): 7.75 h; Residual rate (%) 0 min [3]: 100.00%; Residual rate (%) 15 min [3]: 93.20%; Residual rate (%) 30 min [3]: 98.32%; Residual rate (%) 60 min [3]: 99.08%; Residual rate (%) 120 min [3]: 96.46%; half-life at 0.5 μM [3]: 108 h
